Experiments:
Assay type in all cases: cell-based
[1] = system: type I calli from the PHH corn line; assay: Agrobacterium-mediated transformation of plant-phenolic pre-treated type I callus from corn; settings: for Approximate mean transformation frequency with pretreatment: 5 days on 100-200 μM acetosyringone; for PAT-positive plant lines: about 4000 pre-treated callus fragments
From the text: Type I callus fragments were obtained essentially as described in WO 92/09696. Immature embryos from corn line (Pa91xH99)xH99 (PHH-line) were excised from the kernel 9-12 days after pollination, surface sterilized and plated on Mahi1VII medium for the induction of type I callus. Type I callus was subcultured on the same medium with one month intervals for about two to six months. Next, type I callus was finely cut in fragments with an average length of about 1.5 mm, and the resulting fragments were incubated-for 5 days on LSIDhy1.5VII substrate supplemented with 100-200 μM acetosyringone. The pre-induced callus pieces were collected and without further wounding, immersed in a suspension of the appropriate Agrobacterium strain for about 3 to about 20 minutes. The bacterial suspension was obtained in the following way: bacteria were grown for 3 to 6 days on MAG medium [minimal A medium (Jeffrey Miller, 1972) supplemented with 2 g/L glucose] or AB medium (Chilton et al., 1974). The bacteria were harvested, and resuspended in liquid LSI substrate supplemented with 100-200 μM acetosyringone, at a concentration of about 5×10^9 cells/ml.
After immersion in the bacterial suspension, the callus fragments were co-cultivated on LSIIDhy1.5XI medium, supplemented with 100-200 μM acetosyringone, at about 25° C. for 3 to 6 days (3 days for LBA-type strain, 6 days for EHA-type strain).
After co-cultivation, the tissue was transferred to Ahx1.5VIIp500ino1000ppT10 and cultured for3 to 4 weeks. Proliferating, phosphinotricin (PPT)-resistant calli were excised and subcultured at least twice, with 3 week subculture intervals on Mh1VIIp500ppT5. Embryogenic PPT-resistant calli were plated on regeneration medium (A37VIIp500 ppT2.), and the embryogenic tissue was subcultured twice, with 10 to 14 day intervals, on the same medium. Small plants were transferred to glass containers containing A6%VIIp500ppT2 substrate for further growth, and developing shoots were then transferred to half-strength MS medium supplemented with 1.5% sucrose to allow further shoot elongation as well as rooting. Plants were tested for phosphinothricin acetyl transferase (PAT) activity, and PAT-positive plants were transferred to the greenhouse. PAT-positive plants were tested for the presence of the transgene by Southern hybridization.
Type I callus fragments were obtained as described in Example I and incubated for 5 days on LSIDhy1.5VII substrate supplemented with 100 μM of acetosyringone, followed by co-cultivation with Agrobacterium strain A3532 and A3638. For strain A3532 only I PAT-positive plant was obtained, even with acetosyringone pretreatment (transformation frequency<0.1%). However, the presence of the functional virB promoter preceding the virB11 open reading frame on the T-DNA vector, improved the transformation efficiency (see Table I) at least almost ten times.
Type I callus fragments were obtained as described in Example 1 and incubated for 5 days on LSIDhy1.5VII substrate supplemented with 100 μM of the plant phenolic compounds of Table II. Approximately 200 pre-induced callus fragments were co-cultivated with Agrobacterium strain A3637 (or A3638).
Type I callus fragments were obtained as described in Example 1 and incubated for 5 days on LSIDhy1.5VII substrate supplemented with either 200 μM of acetosyringone or a combination of 100 μM acetosyringone and 100 μM p-hydroxybenzoic acid. About 250 callus pieces were co-cultivated with Agrobacterium strain A3533. Whereas 2 shoot-regenerating lines (comprising 1 PAT-positive line) were obtained on PPT containing media after pre-induction on acetosyringone (frequency about 1%), 7 shoot regenerating lines (comprising 5 PAT-positive lines) were obtained on PPT containing media after pre-induction on acetosyringone plus p-hydroxybenzoic acid (frequency about 3%).

[2] = system: type I calli obtained from corn plant line Pa91; assay: Agrobacterium co-cultivation of acetosyringone pre-treated type I calli, Pa91 line
[3] = system: type I calli obtained from corn plant line (Pa91xH99)xPa91 (PHP); assay: Agrobacterium co-cultivation of acetosyringone pre-treated type I calli, PHP line
type I callus from corn = assay: Transformation by electroporation of acetosyringone pre-treated type I callus from corn; settings: 5 days on 100 μM acetosyringone
Procedure: Finely chopped pieces of calli, derived from type I callus and pre-incubated for 5 days on 100 μM acetosyringone-containing medium, as described in Example 1, were subjected without further wounding to electroporation as described in […]/09696. Briefly, about 50 callus pieces were resuspended in 100 μl EPM-KCl buffer and preplasmolyzed for 3 hr at room temperature. Next the callus pieces were washed in EPM+KCl buffer and transferred to an electrocuvette in EPM+KCl buffer. Plasmid DNA (10 μg of pDE110) was added, and the DNA was incubated with the callus fragments for about 1 hr at room temperature. Electroporation was carried out using standard conditions (1 pulse with initial field strength 375 V/cm from a 900 μF capacitor). The calli were never kept on ice. Phosphinotricin-resistant calli were selected and plants regenerated as described ([…]/09696). Phosphinotricin acetyl transferase activity was detected as described ([…]/09696).

[4] = 5 days on 100 μM compound, approximately 200 callus fragments, strain A3637 (or A3638)
[5] = strain A3533, about 250 callus pieces, 200 μM acetosyringone or 100 μM acetosyringone + 100 μM p-hydroxybenzoic acid, 5 days
[6] = electroporation of about 530 callus pieces

## COc1cc(C=O)ccc1O [vanillin, 3-methoxy-4-hydroxybenzaldehyde]
[1]; [4]
  Number of PAT-positive lines: 4
  Transformation frequency: 2%

## O=C(O)c1ccc(O)c(O)c1 [3,4-dihydroxybenzoic acid]
[1]; [4]
  Number of PAT-positive lines: 2
  Transformation frequency: 1%

## Oc1ccccc1O [catechol, 1,2-dihydroxybenzene]
[1]; [4]
  Number of PAT-positive lines: 1
  Transformation frequency: 0.5%

## O=C(O)c1ccc(O)cc1O [2,4-dihydroxybenzoic acid, 2,4 dihydroxybenzoic acid]
[1]; [4]
  Number of PAT-positive lines: 1
  Transformation frequency: 0.5%

## O=C(O)c1ccc(O)cc1 [p-hydroxybenzoic acid, 4-hydroxybenzoic acid]
[1]; [4]
  Number of PAT-positive lines: 2
  Transformation frequency: 1%

## O=C(O)c1cc(O)c(O)c(O)c1 [gallic acid, 3,4,5-trihydroxybenzoic acid]
[1]; [4]
  Number of PAT-positive lines: 3
  Transformation frequency: 1.5%

## COc1cc(C(C)=O)cc(OC)c1O [acetosyringone, 3,5-dimethoxy-4-hydroxyacetophenone]
[2]
  effect of pre-treatment on transformation frequency: Enhancement of transformation frequency
[1]; [4]
  Number of PAT-positive lines: 2
  Transformation frequency: 1%
[1]; Agrobacterium strain A3533
  Approximate mean transformation frequency with pretreatment: 0.8%
[1]; Agrobacterium strain A3637
  Approximate mean transformation frequency with pretreatment: 0.8%
[1]; Agrobacterium strain A3638
  Approximate mean transformation frequency with pretreatment: 0.9%
[1]; pretreatment medium
  low concentration still giving a good effect on transformation efficiency: approximately 25 μM
  optimal concentration in the medium: approximately 200 μM
[1]; strain A3460, about 1700 pre-treated callus fragments
  PAT-positive lines: 5
[1]; strain A3532, 5 days on 100 μM acetosyringone
  Transformation frequency: < 0.1%
[1]; [5]
  PAT-positive lines: 1
  frequency: about 1%
  shoot-regenerating lines on PPT containing media: 2
[1]; strain A3533
  PAT-positive plant lines: 30
[1]; strain A3637
  PAT-positive plant lines: 33
[1]; strain A3638
  PAT-positive plant lines: 37
[1]; strains A3638, A3533 and A3637, about 4000 pre-treated callus fragments each
  average transformation frequencies: about 1%
[1]; versus no pretreatment, co-cultivation with Agrobacterium strains
  increase in transformation efficiency by pretreatment: at least three times
[3]
  effect of pre-treatment on transformation frequency: Enhancement of transformation frequency
Type I callus from corn; [6]
  PAT-positive plants: 4
  Transformation frequency: about 0.75%
Type I callus from corn; electroporation
  transformation frequency relative to callus not pre-treated: about three times higher
